We go through 3 molecules from patent US8852584B2, “Bactericide having selectivity to cariogenic bacterium, and a method for sterilization of cariogenic bacterium” (Two Cells Co., Ltd., priority 2005, dated 2014).

In one series the test system is S. mutans PMZ175. Briefly: bacteriolytic effect, decrease in turbidity with time, various surfactants added to Aml. The following applies: Table 3. In kind it is cell-based, Streptococcus mutans. The procedure: (§1) The method for measuring the bacteriolytic effect adopted in the present invention is as follows.
(§2) The bacterial strain to be measured its bacteriolytic effect was cultivated overnight, it was washed by physiological saline then suspended into 0.1M phosphate buffer (pH 6.8) containing 0.1M NaCl and 0.1 mM CaCl2. The cell body was treated by ultrasonic generator to disperse the cell body. Thereafter, 500 μg/ml Aml solution dissolved into 30% ethyleneglycol-0.1M sodium phosphate buffer (pH 6.3) and 5 mg/ml surfactant dissolved into distilled water (40 μl) were added into a system consisting of 1 ml of bacterial suspension. 0.1M phosphate buffer solution and 0.1 mM calcium. It was incubated at 37° C., then the turbidity was measured with time, and the bacteriolytic effect was evaluated using the rate of decrease in turbidity as an index.
Using S. mutans PMZ175 (a cariogenic bacterium), the bacteriolytic effect was investigated using experimental systems in which various surfactants were added to Aml (FIG. 3, Table 3). Meanwhile, the food additives investigated in this experiment were glycyrrhizin (0.5%), saponin from quillaya (0.5%), S1670 (0.1%), S1570 (0.05%), P1670 (0.05%), saponin from soybean (0.05%), saponin from yucca (0.05%), and Triton X (0.05%).

In the next series the test system is Streptcoccus mutans 403R. Briefly: bacteriolytic effect, decrease in turbidity with time. Particulars: for percentage of turbidity (beginning = 100%): Table 1, Aml alone or Aml + 0.05% surfactant. Type of series: cell-based, Streptococcus mutans. The procedure: as §1, §2
Using Streptcoccus mutans 403R (dental caries causing bacterium), the bacteriolytic effect was measured with time using an experimental system of Aml alone, and an experimental system of Aml added with P1670 or S1570 at the concentration of 0.05% (Table 1, FIG. 1). In table 1 and FIG. 1, the turbidity of the bacterial solution at the beginning of the experiment was indicated as 100%, and the bacteriolytic effect was represented by the percentage of turbidity at each time point. […] By the way, the control indicates a system in which only a cariogenic bacterium was cultivated.
Using Streptcoccus mutans 403R, the bacteriolytic effect was measured with time on systems in which P1670 or S1570 was added into Aml at various final concentrations (0.05%, 0.025%, 0.001%) (Table 2, FIG. 2).

Consider `CC(C)(C)CC(C)(C)c1ccc(OCCO)cc1` [Triton, Triton X], for which the “percentage of turbidity (beginning = 100%)” value is given as 100.0% with S. mutans PMZ175 (Aml + 0.05% surfactant, Time 0); 93.8% in the series on S. mutans PMZ175 (Aml + 0.05% surfactant, Time 0.25); 68.6% in the series with S. mutans PMZ175 (Aml + 0.05% surfactant, Time 0.5); 10.3% in the series on S. mutans PMZ175 (Aml + 0.05% surfactant, Time 1); −3.4% with S. mutans PMZ175 (Aml + 0.05% surfactant, Time 1.5); −6.6% in the series with S. mutans PMZ175 (Aml + 0.05% surfactant, Time 2.5). The “percentage of turbidity (beginning = 100%)” value is reported as −7.1% in the series with S. mutans PMZ175 (Aml + 0.05% surfactant, Time 3); −7.7% in the series with S. mutans PMZ175 (Aml + 0.05% surfactant, Time 3.5); −8.8% in the series on S. mutans PMZ175 (Aml + 0.05% surfactant, Time 4).

Consider `CC1(C)[C@@H](O[C@H]2O[C@H](C(=O)O)[C@@H](O)[C@H](O)[C@H]2O[C@@H]2O[C@H](C(=O)O)[C@@H](O)[C@H](O)[C@H]2O)CC[C@]2(C)[C@H]3C(=O)C=C4[C@@H]5C[C@@](C)(C(=O)O)CC[C@]5(C)CC[C@@]4(C)[C@]3(C)CC[C@@H]12` [Glycyrrhizin, glycyrrhizin], for which the “percentage of turbidity (beginning = 100%)” value in the series with S. mutans PMZ175 (Aml + 0.5% surfactant, Time 0) is 100.0%; with S. mutans PMZ175 (Aml + 0.5% surfactant, Time 0.25), 96.6%; with S. mutans PMZ175 (Aml + 0.5% surfactant, Time 0.5), 93.6%; in the series with S. mutans PMZ175 (Aml + 0.5% surfactant, Time 1) it was 89.0%; in the series on S. mutans PMZ175 (Aml + 0.5% surfactant, Time 1.5), 81.3%; with S. mutans PMZ175 (Aml + 0.5% surfactant, Time 2.5), 83.7%. The “percentage of turbidity (beginning = 100%)” value turned out to be 80.3% in the series with S. mutans PMZ175 (Aml + 0.5% surfactant, Time 3); 82.3% with S. mutans PMZ175 (Aml + 0.5% surfactant, Time 3.5); 77.4% in the series with S. mutans PMZ175 (Aml + 0.5% surfactant, Time 4).

B1: automutanolysin (protein)
chain: MKSKTYLMIPLALTLFMAANKISADEQNQSLSASEVISSDATSVSELPATTAQISQEVRNNGQDSTIQLQQTQEQSDPITSTSETTVSSMKAATNGSPAKANETETVPSQASTASSVQTPDQILTVPSVKAETTSTADQLQSTSSAPLDQQTDAKRLSNKMTPASSVQARSSLTQDKQVQAQEVTSAVVEEKGIKLQYNGQIARNTKIQFAVWSARNDQDDLQWYTANNMGAAYAEFKNHREYGTYYVHTYANQNGKMIGLNATTLTIAQPQVQTNIQRKSATNFELTVSNVPNTISGIMVPVWSDQNGQDDIKWYNARKADDGSYKVLIDTKNHKNDLGHYEAHIYGYSTVTQSQIGLAVSSGFDRNDTRPNARISVANYDQNKTTFDVVVEGSSDTKTVSAVNIAVWSEDKGQDDLKWYSPKIVDNKATVTINIANHSNTSDKYNVHVYTDYTDGTHSGTILGAYQINKPLEKNTVSADLTSDGIALKLDSNTVTDYTKVRFAVWSDQNGQDDLKWYSANSDGTATAAYSNHSGYGLYHIHTYIIKDGKMVGLNGKTITINQPSAKVDIAKESDALYKVTVSNLPAYISSVVIPVWTDKNNQDDIQWIPATKQGDGTYAAQIQLADHNGETGHYNVHVYGQSKFDNKAVGLAATDGFNVAETRNAVIAASNYNASAGTIDMIVKQEAGGKAIKEVRIAAWSEADQSNLHWYVSSTIIDGKVTVTINEKNHQYIKGNYNIHVYVDYTDGTSSGTNIGNYSLNADKPAVALPSYFIDISSHNGIISVAEFNSLKQQGIQGVVVKLTEGTSYINPYASSQIANARAAGIKVSAYHYAHYTSAAGAQEEARYFANAARSFGLEASTVMVNDMEESSMVNNINNNVQAWQDEMRRQGYSNLIHYTMASWLDIRGGQVDTARFGINNFWVAHYAKGYTYMTQEEAKSLNYYANAAAWQYTSVSSKLSHALDENIDYTGRFTQQ
modifications: Streptococcus mutans
notes: bacterial cell wall lytic enzyme from Streptococcus mutans specific to cariogenic bacterium
Turning to B1, the “percentage of turbidity (beginning = 100%)” value was determined as 100.0% in the series on Streptcoccus mutans 403R (Time 0); 93.3% in the series on Streptcoccus mutans 403R (Time 0.25); 81.5% in the series on Streptcoccus mutans 403R (Time 0.5); 62.6% with Streptcoccus mutans 403R (Time 1); 50.8% in the series with Streptcoccus mutans 403R (Time 1.5); 42.2% in the series on Streptcoccus mutans 403R (Time 2). For the same molecule, the “percentage of turbidity (beginning = 100%)” value in the series on Streptcoccus mutans 403R (Time 4) was 24.6%. In the series with Streptcoccus mutans 403R (summary, Aml alone), the “time required for the bacteriolysis of 50% of living bacterium (ED50)” value was determined as 1.5 h.
